This note sets out measurements from ChEMBL document CHEMBL1909046, “DrugMatrix in vitro pharmacology data”.

Usually IC50 stands for the concentration needed to halve the response being measured.

Test [1] has as its target T1, Alpha-1B adrenergic receptor (Rattus norvegicus, UniProt P15823).
T1 sequence (P15823 whole entry): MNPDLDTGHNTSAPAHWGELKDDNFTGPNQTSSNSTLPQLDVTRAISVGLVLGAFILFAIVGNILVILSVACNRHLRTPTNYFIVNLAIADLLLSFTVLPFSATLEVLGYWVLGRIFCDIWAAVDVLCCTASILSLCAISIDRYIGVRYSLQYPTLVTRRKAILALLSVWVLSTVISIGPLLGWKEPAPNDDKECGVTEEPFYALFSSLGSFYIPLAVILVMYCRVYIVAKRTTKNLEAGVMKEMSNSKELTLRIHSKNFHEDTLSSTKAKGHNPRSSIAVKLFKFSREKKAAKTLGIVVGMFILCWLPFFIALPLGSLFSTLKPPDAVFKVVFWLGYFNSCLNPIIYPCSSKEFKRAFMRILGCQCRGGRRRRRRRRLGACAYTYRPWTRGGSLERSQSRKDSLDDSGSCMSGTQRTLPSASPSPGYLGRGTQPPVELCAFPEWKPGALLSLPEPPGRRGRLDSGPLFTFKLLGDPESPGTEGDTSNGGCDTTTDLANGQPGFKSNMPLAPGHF
As to the kind of experiment: DRUGMATRIX: Alpha-1B adrenergic receptor radioligand binding (ligand: prazosin). The test is classed as cell membranes, Wistar, Liver, Membrane. To be noted: Not Active = under 50% inhibition at 10 µM.

Test [2] is described as follows: DRUGMATRIX: Atrial Natriuretic Factor (ANF) radioligand binding (ligand: [125I] ANF (rat)). It counts as cell membranes, Cavia porcellus, Dunkin-Hartley, Adrenal gland, Membrane. The conditions noted are these: Not Active = under 50% inhibition at 10 µM.
Test [3] has as its target 5-hydroxytryptamine receptor 6 (Homo sapiens, UniProt P50406). It counts as cell membranes, HeLa, Membrane. The conditions noted are these: hela. Further: in other assays of this panel Not Active means under 50% inhibition at 10 µM.
Test [4] can be described thus: DRUGMATRIX: Glutamate, AMPA radioligand binding (ligand: [3H] AMPA). The test is classed as cell membranes, Rattus norvegicus, Wistar, Cerebral cortex, Membrane. The conditions noted are these: Not Active = under 50% inhibition at 10 µM.
In another test the target is T2, Neutrophil elastase (Homo sapiens, UniProt P08246).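 Further: inhibition of neutrophil elastase enzyme activity, measured with a p-nitroanilide-linked peptide substrate; in other assays of this panel Not Active means under 50% inhibition at 10 µM.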
T2 sequence (P08246 whole entry): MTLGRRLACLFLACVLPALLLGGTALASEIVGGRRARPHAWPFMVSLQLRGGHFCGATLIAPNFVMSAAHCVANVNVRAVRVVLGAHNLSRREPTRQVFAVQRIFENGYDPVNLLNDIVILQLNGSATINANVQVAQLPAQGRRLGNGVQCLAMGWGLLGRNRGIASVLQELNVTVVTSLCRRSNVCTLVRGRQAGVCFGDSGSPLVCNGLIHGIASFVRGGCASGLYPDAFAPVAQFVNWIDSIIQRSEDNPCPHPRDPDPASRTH
The test is classed as tissue-based.

The target of test [5] is Tyrosine-protein kinase Fyn (Homo sapiens, UniProt P06241). The test is described as follows: biochemical. It counts as cell-based, Insect cells.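 Further: enzymatic inhibition of Fyn kinase activity measured with Poly(Glu:Tyr) as the phosphorylation substrate; in other assays of this panel Not Active means under 50% inhibition at 10 µM.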

The structures appear in SMILES notation.

5-hydroxytryptamine receptor 6, sequence (P50406 whole entry): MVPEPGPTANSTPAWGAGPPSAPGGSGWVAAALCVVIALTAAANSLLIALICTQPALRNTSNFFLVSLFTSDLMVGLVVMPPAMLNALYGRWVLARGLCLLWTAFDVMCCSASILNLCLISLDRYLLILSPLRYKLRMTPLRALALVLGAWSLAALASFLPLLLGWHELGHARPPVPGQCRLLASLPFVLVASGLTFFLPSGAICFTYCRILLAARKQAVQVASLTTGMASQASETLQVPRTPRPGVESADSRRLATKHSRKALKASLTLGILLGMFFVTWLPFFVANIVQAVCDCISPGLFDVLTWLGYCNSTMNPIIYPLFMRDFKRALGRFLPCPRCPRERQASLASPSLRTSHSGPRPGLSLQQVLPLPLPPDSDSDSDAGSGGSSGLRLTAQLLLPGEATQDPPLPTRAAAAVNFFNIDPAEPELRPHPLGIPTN
Tyrosine-protein kinase Fyn, sequence (P06241 whole entry): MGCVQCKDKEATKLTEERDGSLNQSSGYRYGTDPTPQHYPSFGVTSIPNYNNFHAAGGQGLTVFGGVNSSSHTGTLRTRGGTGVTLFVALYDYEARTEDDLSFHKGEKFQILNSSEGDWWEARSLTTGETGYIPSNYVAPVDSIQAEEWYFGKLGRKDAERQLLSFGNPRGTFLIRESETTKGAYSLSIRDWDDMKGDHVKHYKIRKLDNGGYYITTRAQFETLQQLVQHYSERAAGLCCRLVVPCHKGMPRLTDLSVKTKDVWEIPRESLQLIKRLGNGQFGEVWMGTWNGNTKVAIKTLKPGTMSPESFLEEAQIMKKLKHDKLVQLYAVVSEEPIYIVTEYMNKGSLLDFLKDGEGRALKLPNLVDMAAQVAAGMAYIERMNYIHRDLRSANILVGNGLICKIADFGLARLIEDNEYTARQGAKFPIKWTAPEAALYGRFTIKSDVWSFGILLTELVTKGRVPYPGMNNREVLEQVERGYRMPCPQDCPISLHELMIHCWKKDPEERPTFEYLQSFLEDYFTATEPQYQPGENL

Regarding `CC(=O)O[C@H]1C(=O)[C@@]2(C)[C@H]([C@H](OC(=O)c3ccccc3)[C@]3(O)C[C@H](OC(=O)[C@H](O)[C@@H](NC(=O)c4ccccc4)c4ccccc4)C(C)=C1C3(C)C)[C@]1(OC(C)=O)CO[C@@H]1C[C@@H]2O` [PACLITAXEL], the IC50 result in test [1] was “Not Active”; in test [2], “Not Active”; in test [3], “Not Active”; in test [4], “Not Active”; on Neutrophil elastase it was “Not Active”; in test [5] (read-out: IC50), 23.9 µM. Also, the Ki entry in test [2] and in test [4] was “Not Active” each time.
As to `CC1(C)S[C@@H]2[C@H](NC(=O)[C@H](N)c3ccccc3)C(=O)N2[C@H]1C(=O)O` [AMPICILLIN], the IC50 entry (in test [1]; in test [2]; in test [3]; in test [4]; at Neutrophil elastase; in test [5] (insect cells)) was “Not Active” each time. Moreover, the Ki result in test [2] and in test [4] was “Not Active” throughout.
Regarding `Cn1c(=O)c2c(ncn2CC(O)CO)n(C)c1=O` (configuration not stated) [DYPHYLLINE], the IC50 result (in test [1]; in test [2]; in test [3]; in test [4]; against Neutrophil elastase; in test [5] (insect cells)) was “Not Active” in each case. The Ki entry in test [2] and in test [4] was “Not Active” each time.
With `CN(C)[C@@H]1C(O)=C(C(N)=O)C(=O)[C@@]2(O)C(O)=C3C(=O)c4c(O)ccc(Cl)c4[C@@](C)(O)[C@H]3C[C@@H]12` [CHLORTETRACYCLINE], the half-inhibitory concentration (IC50) entry (in test [1]; in test [2]; in test [3]; in test [4]; against Neutrophil elastase; in test [5] (insect cells)) was “Not Active” throughout. The Ki result in test [2] and in test [4] was “Not Active” throughout.
With `Cn1c(=O)c2[nH]cnc2n(C)c1=O.Cn1c(=O)c2[nH]cnc2n(C)c1=O.NCCN` [AMINOPHYLLINE], the IC50 entry (in test [1]; in test [2]; in test [3]; in test [4]; at Neutrophil elastase; in test [5] (insect cells)) was “Not Active” each time. For the same compound, the Ki result in test [2] and in test [4] was “Not Active” throughout.
With `C[C@H]1O[C@@H](n2cc(F)c(=O)[nH]c2=O)[C@H](O)[C@@H]1O` [DOXIFLURIDINE], the half-inhibitory concentration (IC50) entry (in test [1]; in test [2]; in test [3]; in test [4]; at Neutrophil elastase; in test [5] (insect cells)) was “Not Active” each time. The Ki result in test [2] and in test [4] was “Not Active” in each case.
As to `CC(C(=O)O)c1ccc2oc(-c3ccc(Cl)cc3)nc2c1` (configuration not stated) [BENOXAPROFEN], the concentration for half-maximal inhibition (IC50) entry (in test [1]; in test [2]; in test [3]; in test [4]; against Neutrophil elastase; in test [5] (insect cells)) was “Not Active” each time. Besides, the Ki result in test [2] and in test [4] was “Not Active” throughout.
As for `Oc1c(Cl)cc(Cl)c(Cl)c1Cc1c(O)c(Cl)cc(Cl)c1Cl` [HEXACHLOROPHENE], the IC50 result in test [1] is “Not Active”; in test [2], “Not Active”; in test [3] it was “Not Active”; in test [4], “Not Active”; at Neutrophil elastase, “Not Active”; in test [5] (read-out: IC50), 3.48 µM. The Ki entry in test [2] and in test [4] was “Not Active” each time.
On to `C#C[C@]1(OC(C)=O)CC[C@H]2[C@@H]3CCC4=C[C@@H](OC(C)=O)CC[C@@H]4[C@H]3CC[C@@]21C` [ETHYNODIOL DIACETATE], for which the IC50 result (in test [1]; in test [2]; in test [3]; in test [4]; at Neutrophil elastase; in test [5] (insect cells)) was “Not Active” each time. The Ki entry in test [2] and in test [4] was “Not Active” each time.
